Source: US12202805B2, “Process for preparing (5S)-{[2-(4-carboxyphenyl)ethyl] |2-(2-{|3-chloro-4'-(trifluoromethyl)biphenyl-4-yl]methoxy}phenyl)ethyl]aminol-5,6,7,8-tetrahydroquinoline-2-carboxylic acid and its crystalline forms for use as pharmaceutically active compound” (Bayer Aktiengesellschaft, priority 2021, dated 2025)
“And” between values parts separate entries of the source, which are not always exact repeats. Equal values may be shown once.

Tested on: thromboxane A2 challenged PAH-minipig
Test: Haemodynamics in the anesthetized thromboxane challenged minipig, intratracheal dry powder (PAP, BP)
Type: in vivo, Göttingen Minipigs
Conditions: for BP (absolute values) / PAP (absolute values): lactose vehicle first, test powder 1.5 mg/4 kg i.t. @90 min, each animal (n=3); for % changes vs. baseline on PAP: baseline 100.0 at 80 min, i.t. dry powder, each animal
Description: Healthy Göttingen Minipigs® Ellegaard (Ellegaard, Denmark) of both sexes and having a weight of 2-6 kg were used. The animals were sedated by i.m. administration of about 25 mg/kg ketamine and about 10 mg/kg azaperone. Anaesthesia was initiated by i.v. administration of about 2 mg/kg ketamine and about 0.3 mg/kg midazolam. Maintenance of anaesthesia was by i.v. administration of about 7.5-30 mg/kg/h ketamine and about 1-4 mg/kg/h midazolam (rate of infusion 1-4 ml/kg/h) and about 150 μg/kg/h pancuronium bromide (for example Pancuronium-Actavis). After intubation, the animals were ventilated by the ventilator at a constant respiratory volume (10-12 ml/kg, 35 breaths/min; Avea®, Viasys Healthcare, USA, or Engström Carestation, GE Healthcare, Freiburg, Germany) such that an end-tidal CO2 concentration of about 5% was achieved. Ventilation was performed with room air, enriched with about 40% oxygen (normoxia). For the measurement of the haemodynamic parameters such as pulmonary arterial pressure (PAP), blood pressure (BP) and heart rate (HR), catheters were inserted into the carotid artery to measure the blood pressure, and a Swan-Ganz® catheter was introduced in a flow-directed manner via the jugular vein into the pulmonary artery. The haemodynamic signals were recorded and evaluated by means of pressure transducers (Combitransducer, B. Braun, Melsungen, Germany)/amplifiers and Ponemah® as data acquisition software.
As reference pure Lactose vehicle was applied in the beginning of each experiment.

[1] = time 150 min, listed as ex. 6e, sesquihydrate
[2] = time 160 min, listed as ex. 6e, sesquihydrate
[3] = time 170 min, listed as ex. 6e, sesquihydrate
[4] = time 180 min, listed as ex. 6e, sesquihydrate
[5] = time 190 min, listed as ex. 6e, sesquihydrate
[6] = time 200 min, listed as ex. 6e, sesquihydrate
[7] = time 210 min, listed as ex. 6e, sesquihydrate
[8] = time 220 min, listed as ex. 6e, sesquihydrate
[9] = time 230 min, listed as ex. 6e, sesquihydrate
[10] = time 240 min, listed as ex. 6e, sesquihydrate
[11] = time 250 min, listed as ex. 6e, sesquihydrate
[12] = time 260 min, listed as ex. 6e, sesquihydrate
[13] = time 270 min, listed as ex. 6e, sesquihydrate
[14] = time 280 min, listed as ex. 6e, sesquihydrate
[15] = time 290 min, listed as ex. 6e, sesquihydrate
[16] = time 300 min, listed as ex. 6e, sesquihydrate
[17] = time 310 min, listed as ex. 6e, sesquihydrate
[18] = time not given, 1st row after 310 min, listed as ex. 6e, sesquihydrate
[19] = time not given, 2nd row after 310 min, listed as ex. 6e, sesquihydrate
[20] = time −10 min, 375 μg/kg i.t., sesquihydrate

Structure (SMILES): O.O.O.O=C(O)c1ccc(CCN(CCc2ccccc2OCc2ccc(-c3ccc(C(F)(F)F)cc3)cc2Cl)[C@H]2CCCc3nc(C(=O)O)ccc32)cc1.O=C(O)c1ccc(CCN(CCc2ccccc2OCc2ccc(-c3ccc(C(F)(F)F)cc3)cc2Cl)[C@H]2CCCc3nc(C(=O)O)ccc32)cc1 [example 6e, (5S)—{[2-(4-Carboxyphenyl)ethyl][2-(2-{[3-chloro-4′-(trifluoromethyl)biphenyl-4-yl]methoxy}phenyl)-ethyl]amino}-5,6,7,8-tetrahydroquinoline-2-carboxylic acid sesquihydrate]
- BP (absolute values) (time 150 min): 99 mmHg
- BP (absolute values) [1]: 121 mmHg and 114 mmHg
- PAP (absolute values) [1]: 30.3 mmHg and 29.0 mmHg and 26.6 mmHg
- % changes vs. baseline on PAP (time 160 min, sesquihydrate): 71.0% and 79.5% and 65.9%
- BP (absolute values) (time 160 min): 100 mmHg
- BP (absolute values) [2]: 122 mmHg and 114 mmHg
- PAP (absolute values) [2]: 29.0 mmHg and 30.3 mmHg and 26.9 mmHg
- % changes vs. baseline on PAP (time 170 min, sesquihydrate): 68.5% and 74.3% and 61.5%
- BP (absolute values) [3]: 101 mmHg and 121 mmHg and 115 mmHg
- PAP (absolute values) [3]: 28.0 mmHg and 28.3 mmHg and 25.1 mmHg
- % changes vs. baseline on PAP (time 180 min, sesquihydrate): 63.2% and 80.8% and 62.0%
- BP (absolute values) (time 180 min): 99 mmHg
- BP (absolute values) [4]: 119 mmHg and 115 mmHg
- PAP (absolute values) [4]: 25.8 mmHg and 30.8 mmHg and 25.3 mmHg
- % changes vs. baseline on PAP (time 190 min, sesquihydrate): 61.5% and 80.8% and 58.6%
- BP (absolute values) (time 190 min): 99 mmHg
- BP (absolute values) [5]: 123 mmHg and 114 mmHg
- PAP (absolute values) [5]: 30.8 mmHg and 23.9 mmHg
- % changes vs. baseline on PAP (time 200 min, sesquihydrate): 62.3% and 80.3% and 60.2%
- BP (absolute values) (time 200 min): 98 mmHg
- BP (absolute values) [6]: 116 mmHg and 113 mmHg
- PAP (absolute values) [6]: 25.5 mmHg and 30.6 mmHg and 24.6 mmHg
- % changes vs. baseline on PAP (time 210 min, sesquihydrate): 61.0% and 80.7% and 59.4%
- BP (absolute values) (time 210 min): 99 mmHg
- BP (absolute values) [7]: 117 mmHg and 116 mmHg
- PAP (absolute values) [7]: 25.0 mmHg and 30.8 mmHg and 24.2 mmHg
- % changes vs. baseline on PAP (time 220 min, sesquihydrate): 59.5% and 86.3% and 57.8%
- BP (absolute values) (time 220 min): 97 mmHg
- BP (absolute values) [8]: 123 mmHg and 114 mmHg
- PAP (absolute values) [8]: 24.3 mmHg and 32.9 mmHg and 23.6 mmHg
- % changes vs. baseline on PAP (time 230 min, sesquihydrate): 58.6% and 82.6% and 57.8%
- BP (absolute values) (time 230 min): 97 mmHg
- BP (absolute values) [9]: 119 mmHg and 114 mmHg
- PAP (absolute values) [9]: 24.0 mmHg and 31.5 mmHg and 23.6 mmHg
- % changes vs. baseline on PAP (time 240 min, sesquihydrate): 59.3% and 81.5% and 57.6%
- BP (absolute values) (time 240 min): 97 mmHg
- BP (absolute values) [10]: 119 mmHg and 112 mmHg
- PAP (absolute values) [10]: 24.3 mmHg and 31.0 mmHg and 23.5 mmHg
- % changes vs. baseline on PAP (time 250 min, sesquihydrate): 59.3% and 82.2% and 56.1%
- BP (absolute values) (time 250 min): 97 mmHg
- BP (absolute values) [11]: 118 mmHg and 111 mmHg
- PAP (absolute values) [11]: 24.2 mmHg and 31.3 mmHg and 22.9 mmHg
- % changes vs. baseline on PAP (time 260 min, sesquihydrate): 58.8% and 82.7% and 57.6%
- BP (absolute values) (time 260 min): 96 mmHg
- BP (absolute values) [12]: 116 mmHg and 112 mmHg
- PAP (absolute values) [12]: 24.0 mmHg and 31.5 mmHg and 23.5 mmHg
- % changes vs. baseline on PAP (time 270 min, sesquihydrate): 59.9% and 78.3% and 55.4%
- BP (absolute values) (time 270 min): 99 mmHg
- BP (absolute values) [13]: 115 mmHg and 109 mmHg
- PAP (absolute values) [13]: 24.5 mmHg and 29.8 mmHg and 22.6 mmHg
- % changes vs. baseline on PAP (time 280 min, sesquihydrate): 58.4% and 78.3% and 55.9%
- BP (absolute values) [14]: 97 mmHg and 111 mmHg and 110 mmHg
- PAP (absolute values) [14]: 23.9 mmHg and 29.8 mmHg and 22.8 mmHg
- % changes vs. baseline on PAP (time 290 min, sesquihydrate): 57.4% and 79.6% and 53.9%
- BP (absolute values) [15]: 97 mmHg and 110 mmHg and 107 mmHg
- PAP (absolute values) [15]: 23.5 mmHg and 30.3 mmHg and 22.0 mmHg
- % changes vs. baseline on PAP (time 300 min, sesquihydrate): 60.1% and 78.7% and 54.5%
- BP (absolute values) (time 300 min): 98 mmHg
- BP (absolute values) [16]: 109 mmHg and 108 mmHg
- PAP (absolute values) [16]: 24.6 mmHg and 30.0 mmHg and 22.2 mmHg
- % changes vs. baseline on PAP (time 310 min, sesquihydrate): 58.4% and 77.6% and 53.7%
- BP (absolute values) (time 310 min): 97 mmHg
- BP (absolute values) [17]: 109 mmHg and 105 mmHg
- PAP (absolute values) [17]: 23.9 mmHg and 29.6 mmHg and 21.9 mmHg
- % changes vs. baseline on PAP (time 320 min, sesquihydrate): 61.8% and 76.3% and 55.1%
- % changes vs. baseline on PAP (time 330 min, sesquihydrate): 61.3% and 74.8% and 53.0%
- BP (absolute values) (time not given, 1st row after 310 min): 94 mmHg
- BP (absolute values) [18]: 108 mmHg and 105 mmHg
- PAP (absolute values) [18]: 25.3 mmHg and 29.1 mmHg and 22.5 mmHg
- BP (absolute values) (time not given, 2nd row after 310 min): 97 mmHg
- BP (absolute values) [19]: 108 mmHg and 105 mmHg
- PAP (absolute values) [19]: 25.1 mmHg and 28.5 mmHg and 21.6 mmHg
- BP (mean) (time −10 min, 375 μg/kg i.t.): 99 mmHg
- BP (mean) [20]: 107 mmHg and 119 mmHg
- PAP(mean) [20]: 42.0 mmHg and 36.4 mmHg and 37.5 mmHg
